# Experimental data: the supplement of paper PMC10307832
# Legend:
# Assay in all cases: relative viability (nuclei count vs DMSO), 5 days (fraction); higher = more cells survive
# RERF-LC-KJ = system: RERF-LC-KJ
# Summary of the method: (§1)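 Relative viability divides the nuclei count in treated wells by that in vehicle wells. Lung cancer cell lines were seeded in 1536-well plates, dosed by pin tool the next day, and fixed and stained after 5 days in one step with final 0.05% Triton X-100, 1% formaldehyde and 1 ug/ml Hoechst. Dosing was a single drug or a fixed anchor-drug dose plus five library-drug doses (not always all listed) in √10 steps, and values are medians of duplicate plates imaged at 4×.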
# NCI-H1944 = system: NCI-H1944
# Summary of the method: as §1
# NCI-H650 = system: NCI-H650
# Summary of the method: as §1
# NCI-H838 = system: NCI-H838
# Summary of the method: as §1
# NCI-H520 = system: NCI-H520
# Summary of the method: as §1
# PC-3 [JPC-3] = system: PC-3 [JPC-3]
# Summary of the method: as §1
# NCI-H1651 = system: NCI-H1651
# Summary of the method: as §1
# NCI-H1299 = system: NCI-H1299
# Summary of the method: as §1
# NCI-H1703 = system: NCI-H1703
# Summary of the method: as §1
# IA-LM = system: IA-LM
# Summary of the method: as §1
# A549 = system: A549
# Summary of the method: as §1
# Calu-6 = system: Calu-6
# Summary of the method: as §1
# EBC-1 = system: EBC-1
# Summary of the method: as §1
compound,measurement,setting,value
Nc1ccn([C@@H]2O[C@H](CO)[C@@H](O)[C@@H]2O)c(=O)n1 [Cytarabine] + CS(=O)(=O)CCNCc1ccc(-c2ccc3ncnc(Nc4ccc(OCc5cccc(F)c5)c(Cl)c4)c3c2)o1 [Lapatinib] (partner 2 µM),relative viability,RERF-LC-KJ; first compound 0.005 µM,0.885
same,relative viability,RERF-LC-KJ; first compound 0.01581 µM,0.751
same,relative viability,RERF-LC-KJ; first compound 0.05 µM,0.892
same,relative viability,RERF-LC-KJ; first compound 0.1581 µM,0.569
same,relative viability,RERF-LC-KJ; first compound 0.5 µM,0.47
same,relative viability,NCI-H1944; first compound 0.005 µM,0.603
same,relative viability,NCI-H1944; first compound 0.01581 µM,0.336
same,relative viability,NCI-H1944; first compound 0.05 µM,0.318
same,relative viability,NCI-H1944; first compound 0.1581 µM,0.177
same,relative viability,NCI-H1944; first compound 0.5 µM,0.153
same,relative viability,NCI-H650; first compound 0.005 µM,0.735
same,relative viability,NCI-H650; first compound 0.01581 µM,0.535
same,relative viability,NCI-H650; first compound 0.05 µM,0.363
same,relative viability,NCI-H650; first compound 0.1581 µM,0.202
same,relative viability,NCI-H650; first compound 0.5 µM,0.195
same,relative viability,NCI-H838; first compound 0.005 µM,0.926
same,relative viability,NCI-H838; first compound 0.01581 µM,0.937
same,relative viability,NCI-H838; first compound 0.05 µM,0.767
same,relative viability,NCI-H838; first compound 0.1581 µM,0.288
same,relative viability,NCI-H838; first compound 0.5 µM,0.213
same,relative viability,NCI-H520; first compound 0.005 µM,0.557
same,relative viability,NCI-H520; first compound 0.01581 µM,0.743
same,relative viability,NCI-H520; first compound 0.05 µM,0.911
same,relative viability,NCI-H520; first compound 0.1581 µM,0.552
same,relative viability,NCI-H520; first compound 0.5 µM,0.47
same,relative viability,PC-3 [JPC-3]; first compound 0.005 µM,0.435
same,relative viability,PC-3 [JPC-3]; first compound 0.01581 µM,0.465
same,relative viability,PC-3 [JPC-3]; first compound 0.05 µM,0.426
same,relative viability,PC-3 [JPC-3]; first compound 0.1581 µM,0.396
same,relative viability,PC-3 [JPC-3]; first compound 0.5 µM,0.389
same,relative viability,NCI-H1651; first compound 0.005 µM,0.801
same,relative viability,NCI-H1651; first compound 0.01581 µM,0.845
same,relative viability,NCI-H1651; first compound 0.05 µM,1.02
same,relative viability,NCI-H1651; first compound 0.1581 µM,0.421
same,relative viability,NCI-H1651; first compound 0.5 µM,0.288
same,relative viability,NCI-H1299; first compound 0.005 µM,0.976
same,relative viability,NCI-H1299; first compound 0.01581 µM,0.979
same,relative viability,NCI-H1299; first compound 0.05 µM,1.07
same,relative viability,NCI-H1299; first compound 0.1581 µM,0.987
same,relative viability,NCI-H1299; first compound 0.5 µM,0.95
same,relative viability,NCI-H1703; first compound 0.005 µM,0.776
same,relative viability,NCI-H1703; first compound 0.01581 µM,0.388
same,relative viability,NCI-H1703; first compound 0.05 µM,0.286
same,relative viability,NCI-H1703; first compound 0.1581 µM,0.16
same,relative viability,NCI-H1703; first compound 0.5 µM,0.194
same,relative viability,IA-LM; first compound 0.005 µM,0.85
same,relative viability,IA-LM; first compound 0.01581 µM,0.729
same,relative viability,IA-LM; first compound 0.05 µM,0.588
same,relative viability,IA-LM; first compound 0.1581 µM,0.297
same,relative viability,IA-LM; first compound 0.5 µM,0.175
same,relative viability,A549; first compound 0.005 µM,0.835
same,relative viability,A549; first compound 0.01581 µM,0.648
same,relative viability,A549; first compound 0.05 µM,0.569
same,relative viability,A549; first compound 0.1581 µM,0.148
same,relative viability,A549; first compound 0.5 µM,0.0593
same,relative viability,Calu-6; first compound 0.005 µM,0.903
same,relative viability,Calu-6; first compound 0.01581 µM,0.856
same,relative viability,Calu-6; first compound 0.05 µM,0.921
same,relative viability,Calu-6; first compound 0.1581 µM,0.512
same,relative viability,Calu-6; first compound 0.5 µM,0.341
same,relative viability,EBC-1; first compound 0.01581 µM,0.22
same,relative viability,EBC-1; first compound 0.05 µM,0.185
same,relative viability,EBC-1; first compound 0.1581 µM,0.152
same,relative viability,EBC-1; first compound 0.5 µM,0.208
